Results taken from paper PMC4171606, “A novel copper(I) complex induces ER-stress-mediated apoptosis and sensitizes B-acute lymphoblastic leukemia cells to chemotherapeutic agents” (Oncotarget, 2014).

Legend:
Type in all cases: cell-based, human
[1] = test system: Bcl-2; test: Western blot, Bcl-2; details: SEM and RS4;11, CP 2.5 μM
Protocol: FIGURE 2 CP induces caspase-dependent apoptosis without mitochondria involvement (A) Assessment of mitochondrial membrane potential (ΔΨmt) after treatment of RS4;11 and SEM cells with CP (2.5 μM) for the indicated times. Cells were stained with the fluorescent probe JC-1. Data are represented as mean ± S.E.M. of three independent experiments. (B) Flow cytometric analysis of RS4;11 and SEM cells treated with CP (2.5 μM) for 24 h showing cytochrome c labeled with a monoclonal antibody conjugated to FITC. Representative image of three experiments with similar results. (C) Cells were incubated with CP 2.5 μM and 5 μM in the presence or absence of the pan-caspase inhibitor z-VAD.fmk (100 μM). Cell viability was determined after 48 h by MTT assay. Data are represented as mean ± S.E.M. of three independent experiments performed in triplicate. *p<0.01 vs CP alone. (D) Western blot analysis of Bcl-2, cleaved caspase-12, caspase-9, cleaved caspase-7, caspase-3 and PARP after treatment of SEM and RS4;11 cells with CP (2.5 μM) for the indicated times. To confirm equal protein loading, each membrane was stripped and reprobed with anti-β-actin antibody. […]
Cells were treated with CP and, after different times, were collected, centrifuged and washed with ice cold phosphate-buffered saline (PBS). […] The protein concentration in the supernatant was determined using the BCA protein assay (Pierce, Italy). […]

[2] = test system: K562 (chronic myeloid leukemia); test: MTT growth inhibition, 72 h; details: K562, 72 h, mean ± SE
Protocol: (§1) [Cu(thp)4][PF6] (CP) was evaluated for its growth inhibition activity on a panel of twelve different human leukemia cell lines (five B-acute lymphoblastic leukemia, three T-acute lymphoblastic leukemia, three acute myeloid leukemia and one chronic myeloid leukemia). Cells were treated for 72 h with CP and cell viability was evaluated by MTT test. […] This abnormal high expression of proteasomal proteins and mRNA seem to be correlated to the hyperproliferation of these cancer cells and to the sensitivity towards proteasome inhibitors.
(§2) The human leukemia cell lines RS 4;11, SEM, REH, RCH-ACV, MHH-CALL2, Jurkat, CCRF-CEM, HSB2, HL-60, K562, THP-1, MV4;11 were purchased from the American Type Culture Collection. Cells were cultured in RPMI 1640 (Life Technologies, Italy) supplemented with 10% fetal bovine serum (FBS), glutamine (2 mM; Life Technologies, Italy), penicillin (100 U/ml; Life Technologies, Italy) and streptomycin (100 μg/ml; Life Technologies, Italy), and maintained at 37°C in a humidified atmosphere with 5% CO2. The cytotoxic activity of CP was determined using a standard 3-[4,5-dimethylthiazol-2-yl]-2,5-diphenyltetrazodium bromide (MTT) based colorimetric assay (Sigma-Aldrich, Italy). Briefly, cells were seeded at a density of 2×10^4 cells/well in 96-well microtiter plates. After 24 h, cells were exposed to the test compound. After different times, cell survival was determined by the addition of an MTT solution as previously described.

[3] = test system: RCH-ACV (B-acute lymphoblastic leukemia); test: MTT growth inhibition, 72 h; details: mean ± SE
Protocol: as §1, §2

[4] = test system: SEM (B-acute lymphoblastic leukemia); test: MTT growth inhibition, 72 h; details: mean ± SE
Protocol: as §1, §2

[5] = test system: Jurkat (T-acute lymphoblastic leukemia); test: MTT growth inhibition, 72 h; details: mean ± SE
Protocol: as §1, §2

[6] = test system: REH (B-acute lymphoblastic leukemia); test: MTT growth inhibition, 72 h; details: mean ± SE
Protocol: as §1, §2

[7] = test system: CCRF-CEM (T-acute lymphoblastic leukemia); test: MTT growth inhibition, 72 h; details: mean ± SE
Protocol: as §1, §2

[8] = test system: HL60 (promyelocytic leulemia); test: MTT growth inhibition, 72 h; details: HL60, 72 h, mean ± SE
Protocol: as §1, §2

[9] = test system: MV4;11 (acute myeloid leukemia); test: MTT growth inhibition, 72 h; details: MV4;11, 72 h, mean ± SE
Protocol: as §1, §2

[10] = test system: MHH-CALL2 (B-acute lymphoblastic leukemia); test: MTT growth inhibition, 72 h; details: MHH-CALL2, 72 h, mean ± SE
Protocol: as §1, §2

[11] = test system: THP-1 (acute myeloid leukemia); test: MTT growth inhibition, 72 h; details: THP-1, 72 h, mean ± SE
Protocol: as §1, §2

[12] = test system: HSB-2 (T-acute lymphoblastic leukemia); test: MTT growth inhibition, 72 h; details: HSB-2, 72 h, mean ± SE
Protocol: as §1, §2

[13] = test system: XBP1; test: PCR analysis of XBP1 splicing; details: CP 2.5 μM, 12 h
Protocol: Moreover we found an increase in CHOP expression starting from 3 h of CP treatment. […] Whilst GRP78, due to its chaperon activity, exerts a protective function, CHOP promotes ER-stress cell death, thus the rapid activation of pro-death signals and the late activation of pro-survival chaperone GRP78 could explain the commitment toward apoptosis induced by CP. Moreover, in unresolvable stress conditions, an increased CHOP expression has been correlated to the induction of the expression of many apoptotic genes and to the down-regulation prosurvival genes, such as Bcl-2 [30].
FIGURE 4 CP induces ER stress Western Blot analysis showing expression of GRP78 and CHOP in SEM (A) and in RS4;11 (B) cells. Cells were treated with CP 2.5 μM for the indicated times. (C) PCR analysis showing the induction of XBP1 splicing in SEM and RS4;11 cells. Cells were treated with CP (2.5 μM) or Tunicamycin (2 μg/ml) as positive control for 12 h.
Cells were treated with CP and Tunicamycin as positive control, collected, centrifuged and washed with PBS. Total RNA was extracted from cells using Trizol (Life Technologies, Italy) as previously described. Primer pair used to amplified XBP1 isoforms: forward 5'-[…]-3', reverse 5'-[…]-3'. To separate isoforms, PCR products were run in 5% agarose gel.

F[P-](F)(F)(F)(F)F.OCP(CO)CO.OCP(CO)CO.OCP(CO)CO.OCP(CO)CO.[Cu+] [CP, [Cu(thp)4][PF6]]
time at which decrease of Bcl-2 expression is detectable [1]: ≥ 3 h
GI50 [2]: 23.2 ± 1 µM
GI50 [3]: 0.9 ± 0.2 µM
GI50 [4]: 1.6 ± 0.06 µM
GI50 [5]: 16.7 ± 2.6 µM
GI50 [6]: 4.2 ± 0.2 µM
GI50 [7]: 3.9 ± 0.22 µM
GI50 [8]: 12.1 ± 2.8 µM
GI50 [9]: 1.2 ± 0.2 µM
GI50 [10]: 1.9 ± 0.1 µM
GI50 [11]: 17.2 ± 1 µM
GI50 [12]: 15.1 ± 0.26 µM
XBP1 splicing [13]: induced XBP1 splicing in both cell lines
